In patent US20220033397A1, “PHARMACEUTICAL COMPOUNDS AND THEIR USE AS INHIBITORS OF UBIQUITIN SPECIFIC PROTEASE 19 (USP19)” (ALMAC DISCOVERY LIMITED, priority 2018, published 2022):

The molecules below were run against T1, Full-length USP19 (Homo sapiens, UniProt O94966) (assay: USP19 fluorescence polarisation (FP) homogeneous assay with Ubiquitin-Lys-TAMRA substrate). Conditions: 2.5 nM USP19, 30 min pre-incubation, average of at least two duplicate experiments.
T1 construct: Full-length USP19 was purchased from Boston Biochem (E-576); purchased Boston Biochem E-576
T1 sequence (O94966 1-1318): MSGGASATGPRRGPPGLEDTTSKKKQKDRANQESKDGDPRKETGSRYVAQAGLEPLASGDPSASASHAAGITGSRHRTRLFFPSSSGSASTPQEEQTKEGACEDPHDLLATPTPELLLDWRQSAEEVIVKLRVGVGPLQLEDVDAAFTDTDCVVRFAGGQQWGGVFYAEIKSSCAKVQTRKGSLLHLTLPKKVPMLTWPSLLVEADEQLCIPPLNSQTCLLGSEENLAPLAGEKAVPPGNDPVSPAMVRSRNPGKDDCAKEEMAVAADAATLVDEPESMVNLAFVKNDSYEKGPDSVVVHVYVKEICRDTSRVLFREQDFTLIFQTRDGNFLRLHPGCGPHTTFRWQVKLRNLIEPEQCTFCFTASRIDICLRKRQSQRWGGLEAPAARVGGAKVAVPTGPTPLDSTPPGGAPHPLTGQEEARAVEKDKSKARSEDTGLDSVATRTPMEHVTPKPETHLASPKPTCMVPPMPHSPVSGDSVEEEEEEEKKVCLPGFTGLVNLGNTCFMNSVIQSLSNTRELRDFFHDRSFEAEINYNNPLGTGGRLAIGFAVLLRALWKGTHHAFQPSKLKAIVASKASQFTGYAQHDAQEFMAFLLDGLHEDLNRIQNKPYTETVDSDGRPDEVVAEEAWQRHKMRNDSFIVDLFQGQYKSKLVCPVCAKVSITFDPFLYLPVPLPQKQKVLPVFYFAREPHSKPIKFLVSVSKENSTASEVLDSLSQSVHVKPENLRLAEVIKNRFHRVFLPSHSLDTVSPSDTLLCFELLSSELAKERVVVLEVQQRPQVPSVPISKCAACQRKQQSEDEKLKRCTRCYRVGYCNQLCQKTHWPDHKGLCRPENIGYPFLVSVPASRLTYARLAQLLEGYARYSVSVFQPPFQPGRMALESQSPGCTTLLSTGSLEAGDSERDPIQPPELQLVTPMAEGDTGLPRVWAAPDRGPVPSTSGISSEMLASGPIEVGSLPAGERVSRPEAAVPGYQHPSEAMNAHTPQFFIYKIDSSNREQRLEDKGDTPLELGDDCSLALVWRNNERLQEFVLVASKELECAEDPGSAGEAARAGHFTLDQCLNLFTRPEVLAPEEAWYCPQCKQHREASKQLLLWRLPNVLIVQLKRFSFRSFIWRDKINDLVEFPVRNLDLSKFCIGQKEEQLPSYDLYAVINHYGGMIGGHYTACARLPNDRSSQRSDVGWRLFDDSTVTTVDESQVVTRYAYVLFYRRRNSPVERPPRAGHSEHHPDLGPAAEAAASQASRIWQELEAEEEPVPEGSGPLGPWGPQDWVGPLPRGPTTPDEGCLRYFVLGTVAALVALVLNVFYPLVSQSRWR
Type: biochemical
Method in brief: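 Full-length USP19 preincubated 30 min at RT with inhibitor (200 μM to 2 μM series, 8–18 points) before adding 500 nM Ubiquitin-Lys-TAMRA substrate.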
`C[C@H](CC1CCCCC1)C(=O)N1CCC(O)(Cn2cc(S(C)(=O)=O)c(-c3ccccc3)cc2=O)C2(CCCC2)C1` (stereo partly drawn) [Example 80, 1-((7-((R)-3-Cyclohexyl-2-methylpropanoyl)-10-hydroxy-7-azaspiro[4.5]decan-10-yl)methyl)-5-(methylsulfonyl)-4-phenylpyridin-2(1H)-one] was tested, and the IC50 was under 500 nM. `CN(C)C(=O)c1cn(CC2(O)CCN(C(=O)N(C)C)CC23CCCC3)c(=O)cc1-c1ccccc1` (stereo not drawn) [Example 86, 10-((5-(Dimethylcarbamoyl)-2-oxo-4-phenylpyridin-1(2H)-yl)methyl)-10-hydroxy-N,N-dimethyl-7-azaspiro[4.5]decane-7-carboxamide] showed an IC50 of 5000 to 50000 nM. In the case of `O=C(NCc1ccc(F)cc1F)N1CC[C@@](O)(Cn2cnc(-c3ccccc3)cc2=O)C2(CCCC2)C1` [Example 303, (S)—N-(2,4-Difluorobenzyl)-10-hydroxy-10-((6-oxo-4-phenylpyrimidin-1(6H)-yl)methyl)-7-azaspiro[4.5]decane-7-carboxamide], the IC50 is reported as under 500 nM. With `Cn1cc(-c2cc(=O)n(C[C@]3(O)CCN(C(=O)N4CCOC[C@H]4c4ccc(F)cc4)CC34CCCC4)cn2)cn1` [Example 285, 3-(((S)-7-((R)-3-(4-Fluorophenyl)morpholine-4-carbonyl)-10-hydroxy-7-azaspiro[4.5]decan-10-yl)methyl)-6-(1-methyl-1H-pyrazol-4-yl)pyrimidin-4(3H)-one] the IC50 was under 500 nM. `O=C(N1CC[C@@](O)(Cn2cnc(-c3ccccc3F)cc2=O)C2(CCCC2)C1)N1CCNC[C@H]1c1cc(F)cc(F)c1` [Example 392, 3-(((S)-7-((R)-2-(3,5-Difluoro-phenyl)piper-azine-1-carbonyl)-10-hydroxy-7-azaspiro[4.5]decan-10-yl)methyl)-6-(2-fluorophenyl)pyrimi-din-4(3H)-one] showed an IC50 of under 500 nM. With `C[C@H](CC1CCCCC1)C(=O)N1CCC(O)(Cn2cnc3ccc(Cl)cc3c2=O)C2(CCCC2)C1` (stereo partly drawn) [Example 143, 6-Chloro-3-((7-((R)-3-cyclohexyl-2-methylpropanoyl)-10-hydroxy-7-azaspiro[4.5]decan-10-yl)methyl)quinazolin-4(3H)-one] the IC50 was under 500 nM. With `CC1CC(=O)N(CC2(O)CCN(C(=O)[C@H](C)CC(F)(F)F)CC23CCCC3)CC(C)C1` (stereo partly drawn) [Example 99, 1-((10-Hydroxy-7-((R)-4,4,4-trifluoro-2-methylbutanoyl)-7-azaspiro[4.5]decan-10-yl)methyl)-4,6-dimethylazepan-2-one] the IC50 was 5000 to 50000 nM. With `O=C(N1CC[C@@](O)(Cn2cnc(Cl)cc2=O)C2(CCCC2)C1)N1CCOC[C@H]1c1ccc(F)cc1` [Example 282, 6-Chloro-3-(((S)-7-((R)-3-(4-fluorophenyl)morpholine-4-carbonyl)-10-hydroxy-7-azaspiro[4.5]decan-10-yl)methyl)pyrimidin-4(3H)-one] the IC50 was under 500 nM. With `O=C(N1CCC(O)(Cn2ccc3ccncc3c2=O)C2(CCCC2)C1)N1CCOC[C@H]1c1ccccc1` (stereo partly drawn) [Example 166, 2-((10-Hydroxy-7-((R)-3-phenylmorpholine-4-carbonyl)-7-azaspiro[4.5]decan-10-yl)methyl)-2,7-naphthyridin-1(2H)-one] the IC50 was 500 to 5000 nM. In the case of `O=C(N1CCC(O)(Cn2cnc3ccc(F)cc3c2=O)C2(CCCC2)C1)N1CCOC[C@H]1c1ccccc1` (stereo partly drawn) [Example 164, 6-Fluoro-3-((10-Hydroxy-7-((R)-3-phenylmorpholine-4-carbonyl)-7-azaspiro[4.5]decan-10-yl)methyl)quinazolin-4(3H)-one], the IC50 is reported as under 500 nM. `C[C@H](CC1CCCCC1)C(=O)N1CCC(O)(Cn2c(=O)c3cncnc3n2C)C2(CCCC2)C1` (stereo partly drawn) [Example 174, 2-((7-((R)-3-Cyclohexyl-2-methylpropanoyl)-10-hydroxy-7-azaspiro[4.5]decan-10-yl)methyl)-1-methyl-1,2-dihydro-3H-pyrazolo[3,4-d]pyrimidin-3-one] showed an IC50 of 5000 to 50000 nM. `O=C(N1CC[C@@](O)(Cn2cnc(-c3ccsc3)cc2=O)C2(CCCC2)C1)N1CCNC[C@H]1c1ccccc1` [Example 344, 3-(((S)-10-Hydroxy-7-((R)-2-phenylpiperazine-1-carbonyl)-7-azaspiro[4.5]decan-10-yl)methyl)-6-(thio-phen-3-yl)pyrimidin-4(3H)-one] showed an IC50 of under 500 nM.
